Patent publication US8354403B2, “Pyrrolidine derived beta 3 adrenergic receptor agonists” (Merck Sharp & Dohme Corp., priority 2009, dated 2013)

target: T1, human β3 adrenergic receptor (Homo sapiens, UniProt P13945); assay: Beta-3 agonist in vitro functional assay: cAMP production (LANCE TR-FRET) in CHO cells stably transfected with the cloned β3 receptor; assay type: cell-based; conditions: Table 4; cAMP, CHO cells; read-out: Human β3 agonist functional activity
T1 construct: expressed in transfected cells; host or cells: Chinese hamster ovary (CHO) cells, stably transfected
Method in brief: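 CHO cells stably expressing the cloned receptor, in HEPES-buffered HBSS with BSA and 0.6 mM IBMX, 6,000 cells/well, exposed to compound for 30 min at RT. cAMP read by LANCE TR-FRET against a cAMP standard curve. Isoproterenol defines maximal stimulation.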

T1 sequence (P13945 whole entry): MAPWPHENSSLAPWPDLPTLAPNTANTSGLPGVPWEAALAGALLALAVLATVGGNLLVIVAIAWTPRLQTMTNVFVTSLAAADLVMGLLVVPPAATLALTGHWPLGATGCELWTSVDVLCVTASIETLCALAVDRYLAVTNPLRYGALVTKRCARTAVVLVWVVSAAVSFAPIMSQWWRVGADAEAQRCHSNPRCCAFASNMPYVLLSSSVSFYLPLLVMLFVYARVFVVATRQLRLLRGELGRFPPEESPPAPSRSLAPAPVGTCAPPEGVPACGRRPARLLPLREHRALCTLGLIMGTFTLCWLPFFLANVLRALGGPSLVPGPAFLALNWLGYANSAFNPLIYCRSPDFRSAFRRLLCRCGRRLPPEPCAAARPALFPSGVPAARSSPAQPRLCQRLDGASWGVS

EC50 | Compound
100 to 999 nM | C[C@H]1CN(C(=O)c2ccc(C[C@@H]3CC[C@H]([C@H](O)c4ccccc4)N3)cc2)CC[C@@H]1n1cccn1 [Example 62]
100 to 999 nM | O=C(c1ccc(C[C@@H]2CC[C@H]([C@H](O)c3ccccc3)N2)cc1)N1CC(Oc2cncc(Cl)n2)C1 [Example 3]
100 to 999 nM | C[C@@H]1CN(C(=O)c2ccc(C[C@@H]3CC[C@H]([C@H](O)c4ccccc4)N3)cc2)CC[C@H]1n1cccn1 [Example 61]
100 to 999 nM | CCOC(=O)C1CCN(C(=O)c2ccc(C[C@@H]3CC[C@H]([C@H](O)c4ccccc4)N3)cc2)C1 (stereo partly drawn) [Example 6]

same assay, conditions: Table 5; cAMP, CHO cells; read-out: Human β3 agonist functional activity

Compound | EC50
O=C(c1ccc(C[C@@H]2CC[C@H]([C@H](O)c3ccccc3)N2)cc1)N1CCC(n2c(=O)[nH]c3cc(Cl)ccc32)CC1 [Example 75] | 100 to 999 nM
O=C(c1ccc(C[C@@H]2CC[C@H]([C@H](O)c3ccccc3)N2)cc1)N1CCC(n2c(=O)[nH]c3nc(F)ccc32)CC1 [Example 73] | 10 to 99.9 nM

Continued, values first:

EC50 | Compound
10 to 99.9 nM | CC(C1CCN(C(=O)c2ccc(C[C@@H]3CC[C@H]([C@H](O)c4ccccc4)N3)cc2)CC1)n1ncccc1=O (stereo partly drawn) [Example 165]
100 to 999 nM | Cn1cnnc1C1CCN(C(=O)c2ccc(C[C@@H]3CC[C@H]([C@H](O)c4ccccc4)N3)cc2)CC1 [Example 98]
10 to 99.9 nM | O=C(c1ccc(C[C@@H]2CC[C@H]([C@H](O)c3ccccc3)N2)cc1)N1CCC(S(=O)(=O)C2CCCC2)CC1 [Example 126]

same assay, conditions: Table 8; Beta-3 agonist in vitro functional assay; read-out: Human β3 agonist functional activity

EC50 | Compound
10 to 99.9 nM | CC1C(=O)c2cc(S(C)(=O)=O)ccc2OC12CCN(C(=O)c1ccc(C[C@@H]3CC[C@H]([C@H](O)c4ccccc4)N3)cc1)CC2 (stereo partly drawn) [Example 335]
100 to 999 nM | CC1(C)CC2(CCN(C(=O)c3ccc(C[C@@H]4CC[C@H]([C@H](O)c5ccc[n+]([O-])c5)N4)cc3)CC2)C(=O)O1 [Example 295]

same assay, conditions: Table 9; Beta-3 agonist in vitro functional assay; read-out: Human β3 agonist functional activity

EC50 | Compound
10 to 99.9 nM | Cc1nonc1N1CCN(C(=O)c2ccc(C[C@@H]3CC[C@H]([C@H](O)c4ccccc4)N3)cc2)CC1 [Example 380]
10 to 99.9 nM | O=C(c1ccc(C[C@@H]2CC[C@H]([C@H](O)c3ccccc3)N2)cc1)N1CCN(Cc2ncccc2O)CC1 [Example 413]
10 to 99.9 nM | CCOc1cccnc1N1CCN(C(=O)c2ccc(C[C@@H]3CC[C@H]([C@H](O)c4ccccc4)N3)cc2)CC1 [Example 362]
10 to 99.9 nM | O=C(c1ccc(C[C@@H]2CC[C@H]([C@H](O)c3ccccc3)N2)cc1)N1CCN(Cc2nccc3ccccc23)CC1 [Example 429]
10 to 99.9 nM | O=C(c1ccc(C[C@@H]2CC[C@H]([C@H](O)c3ccccc3)N2)cc1)N1CCN(c2noc3ccccc23)CC1 [Example 385]
10 to 99.9 nM | CC(C)Oc1cccnc1CN1CCN(C(=O)c2ccc(C[C@@H]3CC[C@H]([C@H](O)c4ccccc4)N3)cc2)CC1 [Example 415]

same assay, conditions: Table 10; Beta-3 agonist in vitro functional assay; read-out: Human β3 agonist functional activity

EC50 | Compound
10 to 99.9 nM | CC(C(=O)N(C1CC1)C1CC1)N1CCN(C(=O)c2ccc(C[C@@H]3CC[C@H]([C@H](O)c4ccccc4)N3)cc2)CC1 (stereo partly drawn) [Example 522]
100 to 999 nM | CC1CCN(C(=O)C(C)N2CCN(C(=O)c3ccc(C[C@@H]4CC[C@H]([C@H](O)c5ccccc5)N4)cc3)CC2)CC1 (stereo partly drawn) [Example 488]
10 to 99.9 nM | CC(C(=O)N1CCCC2(CCC2)C1)N1CCN(C(=O)c2ccc(C[C@@H]3CC[C@H]([C@H](O)c4ccccc4)N3)cc2)CC1 (stereo partly drawn) [Example 496]

same assay, conditions: Table 12; human β3 functional activity given as ranges; read-out: Human β3 agonist functional activity

EC50 | Compound
10 to 99.9 nM | CC(c1cocn1)N1CCN(C(=O)c2ccc(CC3CCC(C(O)c4ccccc4)N3)cc2)CC1 (single isomer, unassigned) [Example 586]
1 to 9.9 nM | CC(c1ncccc1Cl)N1CCN(C(=O)c2ccc(CC3CCC(C(O)c4ccccc4)N3)cc2)CC1 (single isomer, unassigned) [Example 594]
1 to 9.9 nM | CC(c1ncccc1Cl)N1CCN(C(=O)c2ccc(CC3CCC(C(O)c4ccccc4)N3)cc2)CC1 (single isomer, unassigned) [Example 593]

same assay, conditions: given as a range; cAMP, CHO cells; read-out: human β3 functional activity

EC50 | Compound
10 to 99.9 nM | O=C(c1ccc(C[C@@H]2CC[C@H]([C@H](O)c3ccccc3)N2)cc1)N1CC2CC(n3cccn3)CC2C1 (stereo partly drawn) [Example 1, (R)-phenyl[(2R,5S)-5-(4-{[5-(1H-pyrazol-1-yl)hexahydrocyclopenta[c]pyrrol-2(1H)-yl]carbonyl}benzyl)pyrrolidin-2-yl]methanol]
